pIC50: −log10 of the molar value.
Tests used:
[1] = tested on: HUVEC grown in presence of VEGF; experiment: VEGF-induced HUVEC proliferation (BrdU incorporation); assay type: cell-based; conditions: Homo sapiens, VEGF 10 ng ml^−1, 72 h
Procedure: (§1) Effect of kinase inhibitors on cell proliferation was measured using BrdU incorporation method using commercially available kits (Roche Diagnostics, Indianapolis, IN, USA). Briefly, HUVEC were seeded in a medium containing 5% FBS in type 1 Collagen-coated 96-well plates and incubated overnight at 37°C, 5% CO2. The medium was aspirated from the cells, and various concentrations of kinase inhibitors in serum-free medium were added to each well. After 30 min, VEGF (10 ng ml^−1) or bFGF (0.3 ng ml^−1) was added to the wells. Cells were incubated for an additional 72 h and BrdU (10 μM) was added during the last 18–24 h of incubation. Data were fitted with a curve described by the equation, y=Vmax × (1−(x/(K+x))), where K is equal to the IC50.

human VEGFR2 kinase = target: T1, human VEGFR2 kinase (Homo sapiens, UniProt P35968); experiment: VEGFR2 kinase assay (HTRF); assay type: biochemical; conditions: Table 1
T1 construct: GST-fusion protein encoding the catalytic carboxyl-terminus of human VEGFR kinase 1, 2, or 3; made in house; host or cells: baculovirus expression system
Procedure: Vascular endothelial growth factor receptor kinase assays were carried out in a homogenous time-resolved fluorescence (HTRF) format in 384-well microtitre plates using a purified, baculovirus-expressed GST-fusion protein encoding the catalytic carboxyl-terminus of human VEGFR kinase 1, 2, or 3. Reactions were initiated by the addition of 10 μl of activated VEGFR kinase (1 nM, 0.1 M HEPES pH 7.5, 0.1 mg ml^−1 BSA, and 0.30 mM DTT) to 10 μl of substrate (360 nM biotin-aminohexyl-EEEEYFELVAKKKK-NH2 peptide, 75 μM ATP, 10 mM MgCl2) and 1 μl of small molecule inhibitor at various concentrations. Plates were incubated at room temperature for 60 min, and the reaction was stopped by the addition of 20 μl 100 mM EDTA. Homogenous time-resolved fluorescence reagents (20 μl 15 nM streptavidin-linked allophycocyanin, 1 nM europium-labelled anti-phosphotyrosine antibody in 0.1 M HEPES, pH 7.5, 0.1 mg ml^−1 BSA) were added and plates were incubated for a minimum of 10 min. The fluorescence at 665 nm was measured with a Victor plate reader (Wallac, Shelton, CT, USA) using a time delay of 50 μs. […] Data were fitted with a curve described by: y=((Vmax × x)/(K+x)+Y2), where Vmax is the upper asymptote, Y2 is the Y intercept, and K is the IC50.

[2] = tested on: HUVEC grown in presence of bFGF; experiment: bFGF-induced HUVEC proliferation (BrdU incorporation); assay type: cell-based; conditions: Homo sapiens, bFGF 0.3 ng ml^−1, 72 h
Procedure: as §1

T1 sequence (P35968 834-1162 limits assumed): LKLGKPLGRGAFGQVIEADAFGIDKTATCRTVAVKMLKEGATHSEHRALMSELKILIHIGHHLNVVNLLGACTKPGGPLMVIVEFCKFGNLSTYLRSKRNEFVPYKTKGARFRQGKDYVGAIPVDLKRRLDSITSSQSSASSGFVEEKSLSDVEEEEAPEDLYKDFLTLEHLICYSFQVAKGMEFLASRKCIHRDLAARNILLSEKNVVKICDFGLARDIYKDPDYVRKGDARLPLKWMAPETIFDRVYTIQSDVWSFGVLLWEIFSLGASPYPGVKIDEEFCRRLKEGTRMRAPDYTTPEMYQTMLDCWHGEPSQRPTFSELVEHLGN

- pIC50 (human VEGFR2 kinase): 8.96
SMILES: Cc1n[nH]c2cc(N(C)c3ccnc(Nc4cc(S(N)(=O)=O)ccc4Cl)n3)ccc12 [GW695612, 4-chloro-3-({4-[methyl(3-methyl-1H-indazol-6-yl)amino]pyrimidin-2-yl}amino)benzenesulphonamide]
- pIC50 [1]: 6.59
- pIC50 [2]: 5.42

— article PMC2409895, “Antitumour efficacy of VEGFR2 tyrosine kinase inhibitor correlates with expression of VEGF and its receptor VEGFR2 in tumour models” (British Journal of Cancer, 2004)
